Assay results published in publication PMC8141582, “Synergistic Effect of Statins and Abiraterone Acetate on the Growth Inhibition of Neuroblastoma via Targeting Androgen Receptor” (Frontiers in Oncology, 2021).
Where two headings read alike, the source gives them in different places.

What was measured:
[1] = system: SH-SY5Y cells; assay: MTT cell viability assay, SH-SY5Y; type: cell-based; conditions: Homo sapiens, NB cell line, 72 h
Protocol: (§1) N2a, SH-SY5Y, SK-N-BE (2), 10A, HUVEC, HL7702 cells were plated in 96-well plates at 8,000 cells/well, respectively, in complete media in triplicate wells for each dose and cultured for 18 h. The neuroblastoma cell lines, N2a, SH-SY5Y, and SK-N-BE (2), and non-cancer cell lines, 10A, HUVEC, and HL7702, were treated with simvastatin and fluvastatin in a range of doses from 0 to 20 μM and with AA from 0 to 30 μM; N2a, SH-SY5Y SK-N-BE (2), were treated with rosuvastatin in a range of doses from 0 to 100 μM for 72 h. Statins dissolved in DMSO and AA dissolved in ethanol. After 72 h treatment, the medium was added 0.5 mg/ml MTT reagent and incubated at 37°C for 4 h. Subsequently, the supernatant was aspirated, and cells were lysed in 150 µl DMSO, then shaken 10 min at 37°C. The optical density (OD) was measured at 570 and 630 nm using a plate reader.

[2] = system: SH-SY5Y xenografts; assay: SH-SY5Y tumor xenograft study; type: in vivo, BALB/c nude mice; conditions: Sim 20 mg/kg, oral daily
Source text: Four weeks old BALB/c nude mice of both sexes were purchased from Vital River Laboratory Animal Technology Co., Ltd. (Beijing, China) and maintained under specific pathogen-free conditions. Male mice were castrated 5 days before cell inoculation. […] Then, all the mice were divided randomly into four groups: control group (Placebo, n = 7), simvastatin group (Sim, n = 6), abiraterone acetate group (AA, n = 6), and combination group (Com, n = 6) including three male mice in each group. […] AA 150 mg/kg/day; combined simvastatin 10 mg/kg/day with AA 75 mg/kg/day. Tumor was harvested after 10 days of dosing, then fixed half of a tumor in 4% buffered formaldehyde for IHC and the other half was stored −80°C for RT-PCR and Western Blots analysis.

[3] = system: specimens of T-ALL patients; parameters: method as in Supplement [25]; key: Positive: Simvastatin alone inhibited the progression of cancer; Negative: Simvastatin alone could not inhibit the progression of cancer; conditions: Pediatric Acute Lymphoblastic Leukemia, 20.0 mg/kg/day, oral; ref Supplement [25]; cited from earlier work
[4] = system: PC-3 cells; parameters: key to Results (simvastatin alone): Positive: Simvastatin alone inhibited the progression of cancer; Negative: Simvastatin alone could not inhibit the progression of cancer; conditions: Prostate Cancer, i.p., cited from earlier work
[5] = system: Caki-1-staR cells; parameters: method as in Supplement [13]; key: Positive: Simvastatin alone inhibited the progression of cancer; Negative: Simvastatin alone could not inhibit the progression of cancer; conditions: Renal Cancer, 6.7 mg/kg/day, i.p.; ref Supplement [13]; cited from earlier work
[6] = system: CAPAN-2 cells; parameters: method as in Supplement [8]; key: Positive: Simvastatin alone inhibited the progression of cancer; Negative: Simvastatin alone could not inhibit the progression of cancer; conditions: Pancreatic Cancer, 0.5 mg/kg/day, oral; ref Supplement [8]; cited from earlier work
[7] = system: SK-N-BE (2) cells; assay: MTT cell viability assay, SK-N-BE (2); type: cell-based; conditions: Homo sapiens, SKNBE2, NB cell line, 72 h
Protocol: as §1

[8] = system: A549 cells; parameters: method as in Supplement [5]; key: Positive: Simvastatin alone inhibited the progression of cancer; Negative: Simvastatin alone could not inhibit the progression of cancer; conditions: Lung Adenocarcinoma, 10.0 mg/kg/day, i.v; ref Supplement [5]; cited from earlier work
[9] = system: SNU-5 cells; parameters: method as in Supplement [6]; key: Positive: Simvastatin alone inhibited the progression of cancer; Negative: Simvastatin alone could not inhibit the progression of cancer; conditions: Gastric Cancer, 2.1 mg/kg/day, i.p.; ref Supplement [6]; cited from earlier work
[10] = system: HCT116 or HT29 cells; parameters: method as in Supplement [11]; key: Positive: Simvastatin alone inhibited the progression of cancer; Negative: Simvastatin alone could not inhibit the progression of cancer; conditions: Colorectal Cancer, 50.0 mg/kg/day, oral; ref Supplement [11]; cited from earlier work
[11] = system: N2a cells; assay: MTT cell viability assay, N2a; type: cell-based, mouse; conditions: Mus musculus
Protocol: as §1

[12] = system: U87MG; parameters: method as in Supplement [1]; key: Positive: Simvastatin alone inhibited the progression of cancer; Negative: Simvastatin alone could not inhibit the progression of cancer; conditions: Glioma, 2.5 mg/kg/day, s.c.; ref Supplement [1]; cited from earlier work
[13] = system: HepG2 cells; parameters: method as in Supplement [7]; key: Positive: Simvastatin alone inhibited the progression of cancer; Negative: Simvastatin alone could not inhibit the progression of cancer; conditions: Hepatocellular Carcinoma, 40.0 mg/kg/day, i.p.; ref Supplement [7]; cited from earlier work
[14] = system: Panc-1 cells from the primary tumors; parameters: method as in Supplement [9]; key: Positive: Simvastatin alone inhibited the progression of cancer; Negative: Simvastatin alone could not inhibit the progression of cancer; conditions: Pancreatic Ductal Adenocarcinoma, 20.0 mg/kg/day, i.p.; ref Supplement [9]; cited from earlier work
[15] = system: SW 480 cells; parameters: method as in Supplement [10]; key: Positive: Simvastatin alone inhibited the progression of cancer; Negative: Simvastatin alone could not inhibit the progression of cancer; conditions: Colorectal Cancer, 6.0 mg/kg/day, oral; ref Supplement [10]; cited from earlier work
[16] = system: MDA-MB-231 cells; parameters: key: Positive: Simvastatin alone inhibited the progression of cancer; Negative: Simvastatin alone could not inhibit the progression of cancer; conditions: Breast Cancer, cited from earlier work

## CCC(C)(C)C(=O)O[C@H]1C[C@@H](C)C=C2C=C[C@H](C)[C@H](CC[C@@H]3C[C@@H](O)CC(=O)O3)[C@H]21 [Simvastatin]
[1]
  IC50: 9.69 µM
[2]
  tumor growth: tumor growth delay
[3]
  Results (simvastatin alone): Negative
[4]; 2.0 mg/kg/day or 4.0 mg/kg/day, ref Supplement [18]
  Results (simvastatin alone): Positive
[4]; 2.1 mg/kg/day or 21.0 mg/kg/day, ref Supplement [19]
  Results (simvastatin alone): Positive
[4]; 4.0 mg/kg/day, ref Supplement [17]
  Results (simvastatin alone): Positive
[5]
  Results (simvastatin alone): Negative
[6]
  Results (simvastatin alone): Positive
[7]
  IC50: 10.5 µM
[8]
  Results (simvastatin alone): Positive
[9]
  Results (simvastatin alone): Positive
[10]
  Results (simvastatin alone): Positive
[11]; N2a, NB cell line, MTT, 72 h
  IC50: 6.07 µM
[11]; N2a cells, 1.5 μM simvastatin, read-out: inhibition rate
  inhibition at 1.5 µM: ~10%
[12]
  Results (simvastatin alone): Positive
[13]
  Results (simvastatin alone): Positive
[14]
  Results (simvastatin alone): Positive
[15]
  Results (simvastatin alone): Positive
[16]; 5.0 mg/kg/day, i.v., ref Supplement [23]
  Results (simvastatin alone): Positive
[16]; 5.0 mg/kg/day, route unknown, ref Supplement [21]
  Results (simvastatin alone): Positive
[16]; 10.0 mg/kg/day, oral, ref Supplement [20]
  Results (simvastatin alone): Positive
[16]; 200.0 mg/kg/day, oral, ref Supplement [22]
  Results (simvastatin alone): Positive
